Measured values as given in US20260231994A1, “TASTE-ENHANCING COMPOSITION, METHOD FOR PRODUCING SAME, FOOD PRODUCT, AND METHOD FOR ENHANCING TASTE OF FOOD PRODUCT” (HOUSE FOODS GROUP INC., priority 2023, published 2026).

Experiments:
Type in all cases: in vivo
[1] = Experiment 6 sensory evaluation of cyclic dipeptides, “middle fullness (enhanced thickness)”
How it was run: (§1)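 Reduced-sodium curry roux (44 g in 300 g hot water) was spiked with cyclic dipeptide solutions matching heat-treated coriander or paprika levels, at 0.5% or 1.0% (w/w) final. Three evaluators scored each sample against unspiked reduced-sodium and common roux. Mean scores were graded F to AA.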

[2] = Experiment 1 sensory evaluation of “boosting of flavor” (cyclic dipeptides, coriander); conditions: for “boosting of flavor” in words: added to reduced-sodium curry roux dispersion, compared with no addition, unheated coriander or common curry roux; for “boosting of flavor” Average: cyclic dipeptide aqueous solution (concentration as in heat-treated coriander) at final 0.2% (w/w) in reduced-sodium curry roux dispersion, score 1-5; for “boosting of flavor” Evaluation: cyclic dipeptide aqueous solution at final 0.2% (w/w) in reduced-sodium curry roux dispersion, class of average score
Procedure: Flour roux was prepared by putting 20 g of flour and 30 g of beef tallow in a pan, then heating with stirring at 120° C. To this flour roux were added 10 g of sodium chloride, 10 g of sugar, 10 g of cornstarch, 5 g of curry powder and 15 g of other seasoning ingredients (vegetable and fruit extracts, yeast extract and seafood extract), and after heat-treatment to 105° C., the mixture was cooled and solidified, to form a block of common curry roux.
The sodium chloride equivalent per 100 g of this curry roux was 10.6 g.
Reduced-sodium curry roux was prepared according to the same procedure, except that the amount of sodium chloride was reduced to 7 g from the amount in the common curry roux in (1).
The sodium chloride equivalent per 100 g of this reduced-sodium curry roux was 7.7 g.
Out of the cyclic dipeptides included in the heat-treated coriander prepared in 1.1. described above, which were confirmed to be increased in 1.2. above, an aqueous solution of the respective 14 cyclic dipeptides shown in the table described below was prepared. The concentration of the cyclic dipeptide in each aqueous solution was set to be equal to its concentration in the heat-treated coriander prepared in 1.1. described above, which was estimated from the ratio of the peak area of the cyclic dipeptide to the peak area of the internal standard (47 μg/g L-lysine-^13C6 monohydrochloride) confirmed in 1.2. described above.
Two dispersions of 44 g of the reduced-sodium curry roux in (2) dispersed in 300 g of hot water were prepared.
To one of them was added the heat-treated coriander or the powdered unheated coriander prepared in 1.1. described above, or the cyclic dipeptide aqueous solution (corresponding to the heat-treated coriander) prepared in (3) above, so that the final concentration was 0.2% (w/w), and a sensory evaluation was carried out.
Forty-four grams of the common curry roux in (1) was dispersed in 300 g of hot water.
The dispersion of reduced-sodium curry roux dispersed in hot water and the dispersion of common curry roux dispersed in hot water were used as comparative controls, and the strength of the flavor was evaluated by four evaluators on the basis of the following evaluation criteria from the viewpoint of “boosting of flavor.” The term “boosting of flavor” in this experiment is an effect concerted by the combination of sodium chloride and other foodstuffs in curry roux, and is an aspect of “saltiness.” Thus, the “flavor” in this experiment can be also expressed as “saltiness.”
The average of the evaluated scores was defined as “F” when it was 1.0 or lower, “C” when it was 1.1 or higher and 1.9 or lower, “B” when it was 2.0 or higher and 2.5 or lower, “A” when it was 2.6 or higher and 2.9 or lower, and “AA” when it was 3.0 or higher.

[3] = Experiment 6 sensory evaluation of cyclic dipeptides, “boosting of last flavor (aftertaste)”
How it was run: as §1

[4] = Experiment 6 sensory evaluation of cyclic dipeptides, “top sharp saltiness”
How it was run: as §1

[5] = Additive amount coriander 0.5%, reduced-sodium curry roux
[6] = heat-treated coriander equivalent aqueous solution of cyclic dipeptide, final 1.0% (w/w) in reduced-sodium curry roux dispersion
[7] = heat-treated coriander equivalent aqueous solution of cyclic dipeptide, final 1.0% (w/w) in reduced-sodium curry roux dispersion, 3 evaluators
[8] = Additive amount coriander 0.5% (heat-treated coriander equivalent aqueous solution, final 0.5% (w/w)), reduced-sodium curry roux
[9] = Additive amount paprika 0.5%, reduced-sodium curry roux
[10] = heat-treated paprika equivalent aqueous solution of cyclic dipeptide, final 1.0% (w/w) in reduced-sodium curry roux dispersion
[11] = heat-treated paprika equivalent aqueous solution of cyclic dipeptide, final 1.0% (w/w) in reduced-sodium curry roux dispersion, 3 evaluators
[12] = Additive amount paprika 0.5% (heat-treated paprika equivalent aqueous solution, final 0.5% (w/w)), reduced-sodium curry roux

Substance | Middle fullness Average [1, 5] | Middle fullness Evaluation [1, 5] | Middle fullness Evaluation [1, 6] | Middle fullness Average [1, 7] | “boosting of flavor” in words [2] | “boosting of flavor” Average [2] | “boosting of flavor” Evaluation [2] | Bosting of last flavor Average [3, 5] | Bosting of last flavor Evaluation [3, 5] | Bosting of last flavor Evaluation [3, 6] | Bosting of last flavor Average [3, 7] | Top sharp saltiness Average [4, 8] | Top sharp saltiness Evaluation [4, 5] | Top sharp saltiness Evaluation [4, 6] | Top sharp saltiness Average [4, 7] | Middle fullness Average [1, 9] | Middle fullness Evaluation [1, 9] | Middle fullness Evaluation [1, 10] | Middle fullness Average [1, 11] | Bosting of last flavor Average [3, 9] | also measured
cyclic (Ala-Val) [Coriander ID 27] | 2.2 points | B (“B” when it was 2.0 or higher and 2.5 or lower) | AA (“AA” when it was 3.0 or higher) | 3.0 points | comparable flavor to that of the dispersion of common curry roux | 3.0 points | AA (“AA” when it was 3.0 or higher) | 2.3 points | B (“B” when it was 2.0 or higher and 2.5 or lower) | A (“A” when it was 2.6 or higher and 2.9 or lower) | 2.7 points | 2.3 points | B (“B” when it was 2.0 or higher and 2.5 or lower) | B (“B” when it was 2.0 or higher and 2.5 or lower) | 2.5 points | – | – | – | – | – | –
cyclic (Phe-Ala) [Coriander ID 33] | 2.5 points | B (“B” when it was 2.0 or higher and 2.5 or lower) | B (“B” when it was 2.0 or higher and 2.5 or lower) | 2.5 points | comparable flavor to that of the dispersion of common curry roux | 3.0 points | AA (“AA” when it was 3.0 or higher) | 2.5 points | B (“B” when it was 2.0 or higher and 2.5 or lower) | B (“B” when it was 2.0 or higher and 2.5 or lower) | 2.5 points | 2.3 points | B (“B” when it was 2.0 or higher and 2.5 or lower) | B (“B” when it was 2.0 or higher and 2.5 or lower) | 2.0 points | – | – | – | – | – | –
cyclic (Gly-Val) [Coriander ID 21] | – | – | – | – | – | 2.3 points | B (“B” when it was 2.0 or higher and 2.5 or lower) | – | – | – | – | – | – | – | – | 2.3 points | B (“B” when it was 2.0 or higher and 2.5 or lower) | B (“B” when it was 2.0 or higher and 2.5 or lower) | 2.0 points | 2.5 points | Bosting of last flavor Evaluation [3, 9]: B (“B” when it was 2.0 or higher and 2.5 or lower); Bosting of last flavor Evaluation [3, 10]: B (“B” when it was 2.0 or higher and 2.5 or lower); Bosting of last flavor Average [3, 11]: 2.2 points; Top sharp saltiness Average [4, 12]: 2.3 points; Top sharp saltiness Evaluation [4, 9]: B (“B” when it was 2.0 or higher and 2.5 or lower); Top sharp saltiness Evaluation [4, 10]: C (“C” when it was 1.1 or higher and 1.9 or lower); Top sharp saltiness Average [4, 11]: 1.7 points
cyclic (Pro-Val) [Coriander ID 29] | – | – | – | – | comparable flavor to that of the dispersion of common curry roux | 3.0 points | AA (“AA” when it was 3.0 or higher) | – | – | – | – | – | – | – | – | 2.3 points | B (“B” when it was 2.0 or higher and 2.5 or lower) | B (“B” when it was 2.0 or higher and 2.5 or lower) | 2.3 points | 2.2 points | Bosting of last flavor Evaluation [3, 9]: B (“B” when it was 2.0 or higher and 2.5 or lower); Bosting of last flavor Evaluation [3, 10]: B (“B” when it was 2.0 or higher and 2.5 or lower); Bosting of last flavor Average [3, 11]: 2.3 points; Top sharp saltiness Average [4, 12]: 2.5 points; Top sharp saltiness Evaluation [4, 9]: B (“B” when it was 2.0 or higher and 2.5 or lower); Top sharp saltiness Evaluation [4, 10]: B (“B” when it was 2.0 or higher and 2.5 or lower); Top sharp saltiness Average [4, 11]: 2.2 points
cyclic (Pro-His) [Coriander ID 15] | 2.5 points | B (“B” when it was 2.0 or higher and 2.5 or lower) | AA (“AA” when it was 3.0 or higher) | 3.0 points | comparable flavor to that of the dispersion of common curry roux | 3.0 points | AA (“AA” when it was 3.0 or higher) | 2.5 points | B (“B” when it was 2.0 or higher and 2.5 or lower) | AA (“AA” when it was 3.0 or higher) | 3.0 points | 2.2 points | B (“B” when it was 2.0 or higher and 2.5 or lower) | B (“B” when it was 2.0 or higher and 2.5 or lower) | 2.0 points | – | – | – | – | – | –
